Results on one compound are retold here after patent US5985926A, “Method for inhibiting intracellular viral replication” (Cell Therapeutics, Inc., priority 1997, dated 1999).

Entries after “also recorded” stand apart in the source; their conditions may differ. A value given as a limit tells only on which side of the number the result lay.

Holding throughout (type): cell-based, human
For one data set, the system named is 293tat cells. In words: Viability of 293tat cells, Alamar Blue. The method, then: 293tat cells, a cell line stably transfected with the expression plasmids pHIV.AP and pHIV.tat, were plated onto 96-well microtiter plates at 2000 cells per well. The media were changed the next day and CT2576 was added at the indicated concentrations to the fresh media with or without TNF-α (20 ng/ml). 2 μl of medium from each well was used for AP assay 24 hr later. After culture media were withdrawn for AP assay, cytotoxicity was measured for the same cell cultures using an indicator dye, Alamar Blue™, that would change color in response to the reduction potential of cell medium due to cell growth. The left y-axis refers to the absorbance value of the reduced form of Alamar Blue™ at 570 nm with the background absorbance at 600 nm from the oxidized form of Alamar Blue™ subtracted. Each data point represents the mean of triplicate samples with error bar indicating the standard deviation of the mean.
The effect of CT2576 on HIV promoter activity in 293tat cells, with the HIV.AP construct cotransfected with pHIV.tat, is shown in FIG. 15. CT2576 inhibited AP reporter gene expression by 50% with an inhibition constant (IC50) in the range of 10 μM with or without TNF-α induction. The inhibition of AP expression is the result of two events: a decrease in AP expression and a decrease in tat expression and therefore lower tat protein levels for transactivation. […]

Data set [1] relates to phosphatidic acid (PA) subspecies in 293tat cells. In words: PA composition of 293tat cells by HPLC. How it is done: One must first quantitatively and qualitatively separate PAs from the other lipids found in serum by a chemical extraction of lipids and high performance liquid chromatography (HPLC) to separate and detect PAs. […] Briefly, the method of Bligh et al. involves an organic extraction of lipids from biological tissue homogenates or fluids. One volume of sample and three volumes of methanol:chloroform (2:1) are vigorously shaken for 2 min. One volume of chloroform is added and then shaken vigorously for 30 sec. One volume of water is added and then shaken vigorously for 30 sec. The mixture is filtered and the upper aqueous layer is discarded. The lower organic layer contains a mixture of lipid classes. The method of Folch et al. involves the extraction of lipids from biological tissue homogenates or body fluids. One volume of sample plus 20 volumes of chloroform:methanol (2:1) are vigorously shaken for 2 min. The mixture is filtered and an amount of 0.1 N KCl equal to 20% of the extraction mixture volume is added and the mixture is shaken vigorously for 2 min. The aqueous and organic phases are allowed to separate. The upper aqueous layer is discarded. The lower organic layer contains a mixture of lipid classes. […] This method involves separation of lipids into their major classes by normal phase (silica) high performance liquid chromatography (HPLC). A 5 micron, 25 cm×0.45 cm silica HPLC column is connected to a binary solvent delivery system followed with a UV detector. The lipid sample is injected on the column and a solvent gradient is run at 1.0 ml/min. The solvent gradient is hexane:isopropanol:water in the proportions 3:4:0.75 run isocratically for 3 min, then ramped to hexane:isopropanol:water in the proportions 3:4:1.4 in 15 min, then run isocratically at the same proportions for 15 min. Detection is at 206 nm.
One of the steps after cell activation involves the hydrolysis of phosphatidylcholine (PC), the major phospholipid of cellular membranes, by phospholipases C and D, leading to the generation of second messengers, such as PA and DG, in the signal transduction cascade.

The subject of a further data set is NFκB. Briefly: NFκB activation in 293tat cells, electrophoretic mobility shift assay. Particulars: CT2576 12 μM, TNF-α 40 ng/ml or IL-1β 1 ng/ml. How it is done:
Nuclear extracts (A) from 293tat cells were tested by EMSA for activation of NFκB. A radiolabeled 40-mer covering the NFκB sequences in the HIV promoter was used as a probe. Cells were incubated with CT2576 at 12 μM, human TNF-α at 40 ng/ml or IL-1β at 1 ng/ml, or pre-incubated for 30 min. with CT2576 and then stimulated with TNF-α or IL-1β for 18 hr prior to making extracts. RNA was extracted from 293tat cells (B) after treatment with CT2576 without or with TNF-α or IL-1β for 18 hr. Northern blots analysis were performed using probes derived from AP cDNA and G3PDH cDNA as a control for normalization of mRNA level. AP activity was determined in cell supernatants from the various samples.
NFκB binding activity in nuclear extracts (Dignam et al., Nucleic Acids Res. 11:1475-1489, 1983) of cells was measured by electrophoretic mobility-shift assay (EMSA) (Carthew et al., Cell 43:439-448, 1985) using 5'-labeled double-stranded synthetic DNA with two NF-κB motifs. Northern blot analysis was performed with total RNA run on 1% agarose/formaldehyde gel and probed with ^32 P-labeled cDNA of AP and glyceraldehyde-3-phosphate dehydrogenase (G3PDH).

For the compound `CCCCCCCCNCC(O)CCCCCCCCCn1c(=O)c2c(ncn2C)n(C)c1=O` (stereo not shown) [CT2576, 1-(11-octylamino-10-hydroxyundecyl)-3,7-dimethylxanthine], the “cytotoxic concentration (not cytotoxic at concentrations up to), 293tat cells” value with 293tat cells (Alamar Blue) is more than 32 µM. Besides, in the data set with 293tat cells (in words), the “cytotoxic effect, 293tat cells” value is “minimal cytotoxic effect”. The “effect on generation of myrPA species / turnover of PA subspecies” value in data set [1] is “affected the turnover of PA subspecies; also recorded: affects the generation of myrPA species”. Further, the “long chain unsaturated PA, share of far UV absorbing lipids after preincubation” value in data set [1] (8 μM CT2576) amounted to 15%. Also, in data set [1] (8 μM CT2576, 2 minutes of TNF-α), the “long chain unsaturated PA, share of far UV absorbing lipids after 2 minutes TNF-α” value stood at 20%. The “short chained saturated PA subspecies” value in data set [1] (preincubation with 8 μM CT2576) is given as “less after CT2576 preincubation than without treatment; also recorded: very little change with addition of TNF-α”. For the same compound, in the data set with NFκB, the “activation of NFκB” value is on record as “did not inhibit TNF-α dependent activation of NFκB”.
